From US8153787B2 (priority 2005, dated 2012) come the findings set out here.

SMILES strings stand for the structures. In brackets after ≈: the same amount, converted by molar mass. Where two headings read alike, the source gives them in different places. Bounds are passed on as bounds.

In data set [1] the test system is Vaccinia virus. Briefly: microbe, parasite or virus in culture. It counts as cell-based. The conditions noted are these: Orthopoxvirus vaccinia, read-out: EC50 vaccinia virus.
The nature of data set [2]: in vitro. The following applies: human.
Data set [3] has as its system HSV-1 (Kos strain). Briefly: microbe, parasite or virus in culture. The following applies: Human alphaherpesvirus 1, HEL. It counts as cell-based, Herpes simplex virus type 1.
Data set [4] deals with HSB-2 cells. The conditions noted are these: human.
Data set [5] deals with vaccinia virus (Lederle strain). The data set is described as follows: microbe, parasite or virus in culture. Type of data set: cell-based. The conditions noted are these: Orthopoxvirus vaccinia, HEL.
For data set [6], the system named is herpes simplex virus type 1 (HSV-1). Briefly: microbe, parasite or virus in culture. It counts as cell-based. The following applies: Human alphaherpesvirus 1, HEL, read-out: EC50 HSV-1 (Kos strain).
Data set [7] can be described thus: in vitro. The conditions noted are these: African green monkey.
Data set [8] is described as follows: in vitro. The conditions noted are these: human, […].
The test system of data set [9] is Vaccinia virus. Briefly: organism not typed. It counts as cell-based. The following applies: HEL.
The nature of data set [10]: in vitro. The following applies: mouse.
Data set [11] can be described thus: in vitro. The following applies: human. The source holds these as a separate data set.
For data set [12], the system named is HEL cells. The following applies: human.
Data set [13] relates to Orf virus (NZ2). The data set is described as follows: microbe, parasite or virus in culture. It counts as cell-based. The conditions noted are these: Orf virus, HEL, read-out: EC50 Orf virus NZ2.
The subject of data set [14] is primate polyomavirus (SV40). Briefly: microbe, parasite or virus in culture. Type of data set: cell-based, simian polyomavirus SV40. The following applies: Polyomavirus sp., BSC-1, in Primates.
Data set [15] concerns murine polyomavirus. The data set is described as follows: microbe, parasite or virus in culture. Type of data set: cell-based. The following applies: Alphapolyomavirus muris, UC1, UC1B.
The subject of data set [16] is Varicella-Zoster Virus (VZV). The data set is described as follows: microbe, parasite or virus in culture. Type of data set: cell-based. The conditions noted are these: Human alphaherpesvirus 3, HEL.
Data set [17] concerns Vaccinia virus (Western Reserve) and recombinant viruses harboring the A314T, A684V or A314T+A684V mutations. Type of data set: cell-based.
The subject of data set [18] is Cowpox virus (Brighton). The data set is described as follows: microbe, parasite or virus in culture. Type of data set: cell-based. The conditions noted are these: Cowpox virus, HEL, read-out: EC50 Cowpox virus Brighton.
Data set [19] deals with Human Cytomegalovirus (HCMV). Briefly: microbe, parasite or virus in culture. Type of data set: cell-based.
The test system of data set [20] is herpes simplex virus type 2 (HSV-2). The data set is described as follows: microbe, parasite or virus in culture. It counts as cell-based. The conditions noted are these: Human alphaherpesvirus 2, HEL, read-out: EC50 HSV-2 (G strain).
Data set [21] deals with MOLT-3 cells. The following applies: human.
The subject of data set [22] is Molluscum contagiosum virus (MCV) clinical isolates. The data set is described as follows: microbe, parasite or virus in culture. The following applies: Keratinocyte. It counts as cell-based.

On to `NC1=NC(=O)N(C[C@@H](CO)OCP(=O)(O)O)CN1` [5,6-dihydro derivative of HPMP-5-azaC, (S)-1-[3-Hydroxy-2-(phosphonomethoxy)propyl]-5,6-dihydro-5-azacytosine], for which, in data set [1], the EC50 was found to be 38 µg/mL (≈ 135 µM). In data set [2], the CC50 came out at 120 µg/mL (≈ 425 µM).
Consider `Nc1ccn(C[C@@H](CO)OCP(=O)(O)O)c(=O)n1` [HPMPC, (S)-1-(3-hydroxy-2-phosphonylmethoxypropyl)cytosine, reference compound], for which the EC50 stood at 0.43 µg/mL (≈ 1.54 µM) in data set [3] (2 h, read-out: EC50 HSV-1 (Kos strain), Treatment from 2 h till end of experiment); 1 µg/mL (≈ 3.58 µM) in data set [3] (read-out: EC50 HSV-1 (Kos strain), Pretreatment (−16 hours)); 2.51 µg/mL (≈ 8.99 µM) in [3] (read-out: EC50 HSV-1 (Kos strain), Treatment 2-4 hours); 1.1 µg/mL (≈ 3.94 µM) in data set [3] (read-out: EC50 HSV-1 (Kos strain), Treatment 2-6 hours); 1 µg/mL (≈ 3.58 µM) in data set [3] (read-out: EC50 HSV-1 (Kos strain), Treatment 2-8 hours); 3.98 µg/mL (≈ 14.3 µM) in [5] (2 h, read-out: EC50 Vaccinia (Lederle strain), Treatment from 2 h till end of experiment). Besides, the EC50 in data set [5] (read-out: EC50 Vaccinia (Lederle strain), Pretreatment (−16 hours)) was 5 µg/mL (≈ 17.9 µM); in data set [5] (read-out: EC50 Vaccinia (Lederle strain), Treatment 2-4 hours) it was 20 µg/mL (≈ 71.6 µM); in [5] (read-out: EC50 Vaccinia (Lederle strain), Treatment 2-6 hours), 9.06 µg/mL (≈ 32.5 µM); in [5] (read-out: EC50 Vaccinia (Lederle strain), Treatment 2-8 hours), 10 µg/mL (≈ 35.8 µM); in [6], 0.16 µg/mL (≈ 0.573 µM); in data set [9] (read-out: EC50 Vaccinia Virus Lister) it was 2.45 µg/mL (≈ 8.78 µM). Besides, the EC50 in data set [9] (Orthopoxvirus vaccinia, read-out: EC50 Vaccinia Virus Copenhagen) was 4.35 µg/mL (≈ 15.6 µM); in data set [9] (Orthopoxvirus vaccinia, read-out: EC50 Vaccinia Virus Lederle), 2.43 µg/mL (≈ 8.7 µM); in data set [9] (Orthopoxvirus vaccinia, read-out: EC50 Vaccinia Virus WR), 5.82 µg/mL (≈ 20.8 µM); in data set [13] it was 0.2 µg/mL (≈ 0.716 µM); in data set [14] (read-out: antiviral activity (EC50) SV40 PML-1 strain EK), 5.56 µg/mL (≈ 19.9 µM); in data set [14] (read-out: antiviral activity (EC50) SV40 PML-2 strain DAR), 5.87 µg/mL (≈ 21 µM). In addition, the EC50 in data set [14] (read-out: antiviral activity (EC50) SV40 strain A2895) was 4.72 µg/mL (≈ 16.9 µM); in data set [15] (read-out: antiviral activity (EC50) 2PTA2), 5.78 µg/mL (≈ 20.7 µM); in data set [15] (read-out: antiviral activity (EC50) LID-1) it was 5.89 µg/mL (≈ 21.1 µM); in data set [15] (read-out: antiviral activity (EC50) MN/RDE Toronto) it was 2.76 µg/mL (≈ 9.89 µM); in data set [15] (read-out: antiviral activity (EC50) PTA), 6.54 µg/mL (≈ 23.4 µM); in [16] (read-out: EC50 VZV 07/1 strain (HEL cells)) it was 0.05 µg/mL (≈ 0.179 µM). Also, the EC50 in data set [16] (read-out: EC50 VZV OKA strain (HEL cells)) came to 0.2 µg/mL (≈ 0.716 µM); in data set [18], 8.43 µg/mL (≈ 30.2 µM); in data set [19] (Human betaherpesvirus 5, AD169, HEL, read-out: EC50 HCMV AD-169 strain (HEL cells)), 0.2 µg/mL (≈ 0.716 µM); in data set [19] (Human betaherpesvirus 5, HEL, read-out: EC50 HCMV Davis strain (HEL cells)), 0.3 µg/mL (≈ 1.07 µM); in data set [20], 0.54 µg/mL (≈ 1.93 µM); in data set [22] (read-out: EC50 MCV 06/02) it was 0.76 µg/mL (≈ 2.72 µM). In addition, the EC50 was 0.55 µg/mL (≈ 1.97 µM) in data set [22] (read-out: EC50 MCV 06/03), 0.55 µg/mL (≈ 1.97 µM) in [22] (read-out: EC50 MCV 06/04) and 0.6 µg/mL (≈ 2.15 µM) in [22] (read-out: EC50 MCV 06/06). The “Toxicity MCC (microscopy), HSB-2 cells” value in [4] was 19 µg/mL. Besides, the CC50 in data set [7] was 79.4 µg/mL (≈ 284 µM); in [8] it was 68.6 µg/mL (≈ 246 µM); in data set [10] it was 84.3 µg/mL (≈ 302 µM); in data set [11], more than 79 µg/mL. In addition, the “Toxicity MCC (microscop)” value in data set [12] was more than 79 µg/mL. The “EC50 Vaccinia virus (Western Reserve) wild-type” value in data set [17] was 3.1 µg/mL (≈ 11.1 µM). In [17], the “EC50 recombinant vaccinia virus 314 + 684” value came to 39.5 µg/mL. Besides, in [17], the “EC50 recombinant vaccinia virus 684” value was 14.8 µg/mL. Also, the “EC50 recombinant vaccinia virus A314T” value in data set [17] was found to be 22.2 µg/mL. The “Toxicity MCC (microscopy), MOLT-3 cells” value in [21] was determined as 32 µg/mL.
